Where two headings read alike, the source gives them in different places.
System: HCV replicon cells
Assay: Cell-based HCV replicon assay (replicon RNA by Taqman real time PCR)
Conditions: read-out: 1b EC50
[1] = Hepatitis C virus, 72 h, HCV replicon 1b, cells harvested on day 3

| Compound | EC50 [µM] | EC50 (Hepatitis C virus, 72 h) [µM] | also measured |
| --- | --- | --- | --- |
| CCOc1nc(N)nc2c1ncn2[C@@H]1O[C@H](COP(=O)(N[C@@H](C)C(=O)OCC(C)(C)C)Oc2ccccc2)[C@@H](O)[C@@]1(C)N=[N+]=[N-] (single isomer, unassigned) [Compound 160] | 6.8 |  |  |
| C[C@@]1(N=[N+]=[N-])[C@H](O)[C@@H](CO)O[C@H]1n1cnc2c(=O)[nH]c(N)nc21 [Compound 17] |  |  | EC50 [1]: > 100 µM |
| COc1nc(N)nc2c1ncn2[C@@H]1O[C@H](COP(=O)(N[C@@H](C)C(=O)OC2CCCCC2)Oc2ccc(Cl)cc2)[C@@H](O)[C@@]1(C)N=[N+]=[N-] (stereo partly drawn) [Compound 80] |  | 2.6 |  |
| CC(C)OC(=O)[C@H](C)NP(=O)(OC[C@H]1O[C@@H](n2ccc(=O)[nH]c2=O)[C@](C)(N=[N+]=[N-])[C@@H]1O)Oc1ccc(Cl)c(Cl)c1 (stereo partly drawn) [Compound 92] |  | 7.6 |  |
| CCOc1nc(N)nc2c1ncn2[C@@H]1O[C@H](COP(=O)(N[C@@H](C)C(=O)OCc2ccccc2)Oc2ccccc2)[C@@H](O)[C@@]1(C)N=[N+]=[N-] (single isomer, unassigned) [Compound 351] | 2.6 |  |  |
| CCOc1nc(N)nc2c1ncn2[C@@H]1O[C@H](COP(=O)(N[C@@H](C)C(=O)OCC(C)(C)C)Oc2ccccc2)[C@@H](O)[C@@]1(C)N=[N+]=[N-] (stereo partly drawn) [Compound 11] |  | 1.1 |  |
| C[C@H](NP(=O)(OC[C@H]1O[C@@H](n2ccc(N)nc2=O)[C@](C)(N=[N+]=[N-])[C@@H]1O)Oc1ccccc1)C(=O)OC1CCCCC1 (single isomer, unassigned) [Compound 338] | 26 |  |  |
| COC(=O)[C@H](C)NP(=O)(OC[C@H]1O[C@@H](n2cnc3c(OC)nc(N)nc32)[C@](C)(N=[N+]=[N-])[C@@H]1O)Oc1ccc(Cl)cc1 (stereo partly drawn) [Compound 79] |  | 0.2 |  |
| COC(=O)c1ccccc1OP(=O)(N[C@@H](C)C(=O)OC(C)C)OC[C@H]1O[C@@H](n2ccc(=O)[nH]c2=O)[C@](C)(N=[N+]=[N-])[C@@H]1O (stereo partly drawn) [Compound 219] |  | 22 |  |
| CCOc1nc(N)nc2c1ncn2[C@@H]1O[C@H](COP(=O)(N[C@@H](C)C(=O)OC)Oc2ccc(Cl)cc2)[C@@H](O)[C@@]1(C)N=[N+]=[N-] (single isomer, unassigned) [Compound 312] | 2.2 |  |  |
| COC(=O)[C@H](C)NP(=O)(OC[C@H]1O[C@@H](n2ccc(N)nc2=O)[C@](C)(N=[N+]=[N-])[C@@H]1O)Oc1ccccc1Cl (single isomer, unassigned) [Compound 331] | 10 |  |  |
| CCCOP1(=O)OC[C@H]2O[C@@H](n3ccc(N)nc3=O)[C@](C)(N=[N+]=[N-])[C@@H]2O1 (stereo partly drawn) [Compound 33] |  |  | EC50 [1]: > 100 µM |
| COC(=O)[C@H](C)NP(=O)(OC[C@H]1O[C@@H](n2ccc(N)nc2=O)[C@](C)(N=[N+]=[N-])[C@@H]1O)Oc1ccccc1Cl (single isomer, unassigned) [Compound 201] | 12 |  |  |
| CCOc1nc(N)nc2c1ncn2[C@@H]1O[C@H](COP(=O)(N[C@@H](C)C(=O)OC)Oc2cccc3ccccc23)[C@@H](O)[C@@]1(C)N=[N+]=[N-] (single isomer, unassigned) [Compound 355] |  | 1.3 |  |
| COc1nc(N)nc2c1ncn2[C@@H]1O[C@H](COP(=O)(N[C@@H](C)C(=O)OC2CCCCC2)Oc2ccccc2)[C@@H](O)[C@@]1(C)N=[N+]=[N-] (single isomer, unassigned) [Compound 274] | 8.7 |  |  |
| COc1nc(N)nc2c1ncn2[C@@H]1O[C@H](COP(=O)(N[C@@H](C)C(=O)OC2CCCCC2)Oc2ccc(F)cc2)[C@@H](O)[C@@]1(C)N=[N+]=[N-] (single isomer, unassigned) [Compound 264] | 0.2 |  |  |
| CCOC(=O)[C@H](C)NP(=O)(OC[C@H]1O[C@@H](n2ccc(N)nc2=O)[C@](C)(N=[N+]=[N-])[C@@H]1O)Oc1ccc(Cl)cc1 (single isomer, unassigned) [Compound 189] | 22 |  |  |
| CCOc1nc(N)nc2c1ncn2[C@@H]1O[C@H](COP(=O)(N[C@@H](C)C(=O)OC2CCCCC2)Oc2ccc(F)cc2)[C@@H](O)[C@@]1(C)N=[N+]=[N-] (stereo partly drawn) [Compound 64] |  | 0.4 |  |

— patent US9156872B2, “2′-azido substituted nucleoside derivatives and methods of use thereof for the treatment of viral diseases” (priority 2011, dated 2015)
